Target: APJ receptor (Homo sapiens (Human), UniProt P35414)
Test: [35S]GTPγS binding assay on membranes from CHO cells stably expressing human APJ receptor
Format: biochemical
Details: membranes of CHO cells stably expressing human APJ receptor, means of several independent experiments, read-out: Activity hAPJ SPA EC50 IP
Outline: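 EC50 values were obtained by non-linear regression of [35S]GTPγS (0.2 nM) binding after 90 min at RT, with nonspecific binding defined by 100 μM GTPγS. Reactions used human APJ–expressing CHO cell membranes on WGA PS beads in HEPES pH 7.5 buffer with 5 mM MgCl2, 200 mM NaCl, 3 μM GDP and 0.1% BSA.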

Sequence of APJ receptor (P35414 whole entry): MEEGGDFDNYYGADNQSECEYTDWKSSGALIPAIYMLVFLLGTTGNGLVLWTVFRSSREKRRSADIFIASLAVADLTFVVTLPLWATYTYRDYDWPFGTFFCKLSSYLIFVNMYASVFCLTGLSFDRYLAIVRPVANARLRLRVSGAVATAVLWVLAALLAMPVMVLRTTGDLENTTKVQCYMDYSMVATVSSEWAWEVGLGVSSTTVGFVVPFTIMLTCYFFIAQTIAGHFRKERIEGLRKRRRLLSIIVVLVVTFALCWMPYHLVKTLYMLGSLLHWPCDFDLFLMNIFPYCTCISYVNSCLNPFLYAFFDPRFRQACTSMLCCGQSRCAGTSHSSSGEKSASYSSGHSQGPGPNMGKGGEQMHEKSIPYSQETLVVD

How did the EC50 turn out when `COc1cccc(OC)c1-n1c(NS(=O)(=O)C[C@@H](C)c2ncc(F)cn2)nnc1-c1ccco1` (mixture of isomers) [Example 129.0, (S)-N-(4-(2,6-dimethoxyphenyl)-5-(furan-2-yl)-4H-1,2,4-triazol-3-yl)-2-(5-fluoropyrimidin-2-yl)propane-1-sulfonamide and (R)-N-(4-(2,6-dimethoxyphenyl)-5-(furan-2-yl)-4H-1,2,4-triazol-3-yl)-2-(5-fluoropyrimidin-2-yl)propane-1-sulfonamide] was run?
Its EC50 is 3300 pM.

How did the EC50 turn out when `COc1cccc(OC)c1-n1c(NS(=O)(=O)[C@@H](C)[C@H](O)c2ccc(C#N)cc2F)nnc1-c1ccc(C)o1` (single isomer, unassigned) [Example 61.0] was run?
Its EC50 is 200 pM.

For `COc1cccc(OC)c1-n1c(NS(=O)(=O)CCc2ccc(F)cc2C#N)nnc1-c1ccc(C(F)(F)F)o1` [Example 131.0, 2-(2-Cyano-4-fluorophenyl)-N-(4-(2,6-dimethoxyphenyl)-5-(5-(trifluoromethyl)furan-2-yl)-4H-1,2,4-triazol-3-yl)ethanesulfonamide], which EC50 is on record?
The EC50 was 3900 pM.

With `CO[C@H](c1ncc(Cl)cn1)[C@H](C)S(=O)(=O)Nc1nnc(-c2ccc(C)o2)n1[C@H]1CCCOC1` [Example 390.0, (1R,2S)-1-(5-chloropyrimidin-2-yl)-1-methoxy-N-(5-(5-methylfuran-2-yl)-4-((S)-tetrahydro-2H-pyran-3-yl)-4H-1,2,4-triazol-3-yl)propane-2-sulfonamide] as the compound, how does the EC50 read?
The EC50 was 13000 pM.

Which EC50 does the source give for `COc1ncnc(OC)c1-n1c(NS(=O)(=O)[C@@H](C)[C@H](C)c2ncc(F)cn2)nnc1-c1ccc(C)o1` [Example 393.0, (2S,3R)-N-(4-(4,6-dimethoxy-5-pyrimidinyl)-5-(5-methyl-2-furanyl)-4H-1,2,4-triazol-3-yl)-3-(5-fluoro-2-pyrimidinyl)-2-butanesulfonamide] here?
Its EC50 is 280 pM.

For `COc1cccc(OC)c1-n1c(NS(=O)(=O)C[C@](C)(O)c2ncc(C#N)cn2)nnc1-c1ccc(C)o1` (single isomer, unassigned) [Example 233.0, (R)-2-(5-Cyanopyrimidin-2-yl)-N-(4-(2,6-dimethoxyphenyl)-5-(5-methylfuran-2-yl)-4H-1,2,4-triazol-3-yl)-2-hydroxypropane-1-sulfonamide or (S)-2-(5-cyanopyrimidin-2-yl)-N-(4-(2,6-dimethoxyphenyl)-5-(5-methylfuran-2-yl)-4H-1,2,4-triazol-3-yl)-2-hydroxypropane-1-sulfonamide], which EC50 is on record?
Its EC50 is 500 pM.

Which EC50 does the source give for `COc1cccc(OC)c1-n1c(NS(=O)(=O)CCN2C(=O)[C@H](C)C[C@H]2C)nnc1-c1ccco1` (single isomer, unassigned) [Example 175.0] here?
Its EC50 is 1900 pM.

With `COc1ncnc(OC)c1-n1c(NS(=O)(=O)[C@@H](C)[C@H](C)c2ncc(C#N)cn2)nnc1-c1ccc(C)o1` [Example 397.0, (2S,3R)-3-(5-Cyano-2-pyrimidinyl)-N-(4-(4,6-dimethoxy-5-pyrimidinyl)-5-(5-methyl-2-furanyl)-4H-1,2,4-triazol-3-yl)-2-butanesulfonamide] as the compound, how does the EC50 read?
The EC50 was 510 pM.

Which EC50 does the source give for `COc1ncnc(OC)c1-n1c(NS(=O)(=O)[C@@H](C)[C@H](OC)c2ncc(Cl)cn2)nnc1-c1ccc(C)o1` [Example 384.0, (1R,2S)-1-(5-chloro-2-pyrimidinyl)-N-(4-(4,6-dimethoxy-5-pyrimidinyl)-5-(5-methyl-2-furanyl)-4H-1,2,4-triazol-3-yl)-1-methoxy-2-propanesulfonamide] here?
Its EC50 is 150 pM.

With `COc1ccccc1-n1c(NS(=O)(=O)[C@@H](C)[C@H](C)c2ncc(F)cn2)nnc1-c1ccc(C)o1` [Example 172.0, (2S,3R)-3-(5-Fluoro-2-pyrimidinyl)-N-(4-(2-methoxyphenyl)-5-(5-methyl-2-furanyl)-4H-1,2,4-triazol-3-yl)-2-butanesulfonamide] as the compound, how does the EC50 read?
Its EC50 is 1200 pM.

Which EC50 does the source give for `COc1cccc(OC)c1-n1c(NS(=O)(=O)[C@@H](C)[C@H](O)c2ccc(Cl)cc2S(C)(=O)=O)nnc1-c1ccc(C)o1` (single isomer, unassigned) [Example 157.0, (1R,2S)-1-(4-Chloro-2-(methylsulfonyl)phenyl)-N-(4-(2,6-dimethoxyphenyl)-5-(5-methyl-2-furanyl)-4H-1,2,4-triazol-3-yl)-1-hydroxy-2-propanesulfonamide or (1S,2R)-1-(4-chloro-2-(methylsulfonyl)phenyl)-N-(4-(2,6-dimethoxyphenyl)-5-(5-methyl-2-furanyl)-4H-1,2,4-triazol-3-yl)-1-hydroxy-2-propanesulfonamide] here?
The EC50 was 390 pM.

For `COCC(COC)n1c(NS(=O)(=O)[C@@H](C)[C@@H](OC(C)C)c2ncc(Cl)cn2)nnc1-c1ccc(C)o1` [Example 392.0, (1S,2S)-1-(5-chloro-2-pyrimidinyl)-N-(4-(1,3-dimethoxy-2-propanyl)-5-(5-methyl-2-furanyl)-4H-1,2,4-triazol-3-yl)-1-(2-propanyloxy)-2-propanesulfonamide], which EC50 is on record?
Its EC50 is 550 pM.

`COc1cccc(OC)c1-n1c(NS(=O)(=O)CCc2ncc(Cl)cc2CCN2CCCC2)nnc1-c1ccco1` [Example 232.0, 2-(5-Chloro-3-(2-(1-pyrrolidinyl)ethyl)-2-pyridinyl)-N-(4-(2,6-dimethoxyphenyl)-5-(2-furanyl)-4H-1,2,4-triazol-3-yl)ethanesulfonamide] was tested. Which EC50 did it give?
Its EC50 is 450 pM.

Which EC50 does the source give for `COC[C@@H](Cc1ncc(F)cn1)S(=O)(=O)Nc1nnc(-c2ccc(C)o2)n1-c1c(OC)cccc1OC` (single isomer, unassigned) [Example 72.0, (2R)—N-(4-(2,6-Dimethoxyphenyl)-5-(5-methyl-2-furanyl)-4H-1,2,4-triazol-3-yl)-1-(5-fluoro-2-pyrimidinyl)-3-methoxy-2-propanesulfonamide or (2S)—N-(4-(2,6-dimethoxyphenyl)-5-(5-methyl-2-furanyl)-4H-1,2,4-triazol-3-yl)-1-(5-fluoro-2-pyrimidinyl)-3-methoxy-2-propanesulfonamide] here?
The EC50 was 480 pM.

Which EC50 does the source give for `COc1cccc(OC)c1-n1c(NS(=O)(=O)[C@@H](C)[C@@](C)(O)c2ncc(F)cn2)nnc1-c1ccc(C)o1` [Example 242.0, (2S,3S)—N-(4-(2,6-Dimethoxyphenyl)-5-(5-methyl-2-furanyl)-4H-1,2,4-triazol-3-yl)-3-(5-fluoro-2-pyrimidinyl)-3-hydroxy-2-butanesulfonamide] here?
Its EC50 is 810 pM.

`COc1cccc(OC)c1-n1c(NS(=O)(=O)[C@@H](C)CN2C(=O)CCC[C@]2(C)C#N)nnc1-c1ccco1` (single isomer, unassigned) [Example 341.0] was tested. Which EC50 did it give?
The EC50 was 81000 pM.

How did the EC50 turn out when “(1R,2R)-N-(4-(2,6-dimethoxyphenyl)-5-(5-methyl-2-furanyl)-4H-1,2,4-triazol-3-yl)-1-methoxy-1-(5-methyl-2-pyrimidinyl)-2-propanesulfonamide or (1S,2S)-N-(4-(2,6-dimethoxyphenyl)-5-(5-methyl-2-furanyl)-4H-1,2,4-triazol-3-yl)-1-methoxy-1-(5-methyl-2-pyrimidinyl)-2-propanesulfonamide [Example 226.0]” was run?
Its EC50 is 350 pM.

Which EC50 does the source give for `COc1cccc(OC)c1-n1c(NS(=O)(=O)[C@@H]2COCC[C@@H]2O)nnc1-c1ccc(C)o1` (single isomer, unassigned) [Example 403.0] here?
Its EC50 is 57000 pM.

How did the EC50 turn out when `COc1cccc(OC)c1-n1c(NS(=O)(=O)[C@H]2CNC[C@H](c3ccc(F)cc3)C2)nnc1-c1ccco1` (single isomer, unassigned) [Example 188.0, (3R,5S)—N-(4-(2,6-Dimethoxyphenyl)-5-(2-furanyl)-4H-1,2,4-triazol-3-yl)-5-(4-fluorophenyl)-3-piperidinesulfonamide or (3S,5R)—N-(4-(2,6-dimethoxyphenyl)-5-(2-furanyl)-4H-1,2,4-triazol-3-yl)-5-(4-fluorophenyl)-3-piperidinesulfonamide] was run?
Its EC50 is 75000 pM.

For `COc1cccc(OC)c1-n1c(NS(=O)(=O)CCN2C(=O)N(C)CC[C@@H]2C)nnc1-c1ccc(C)o1` (single isomer, unassigned) [Example 164.0, N-(4-(2,6-Dimethoxyphenyl)-5-(5-methyl-2-furanyl)-4H-1,2,4-triazol-3-yl)-2-((6S)-3,6-dimethyl-2-oxotetrahydro-1(2H)-pyrimidinyl)ethanesulfonamide or N-(4-(2,6-dimethoxyphenyl)-5-(5-methyl-2-furanyl)-4H-1,2,4-triazol-3-yl)-2-((6R)-3,6-dimethyl-2-oxotetrahydro-1(2H)-pyrimidinyl)ethanesulfonamide], which EC50 is on record?
The EC50 was 740 pM.

`COc1cccc(OC)c1-n1c(NS(=O)(=O)[C@H](C)Cc2ccncn2)nnc1-c1ccco1` (single isomer, unassigned) [Example 44.0, (2R)—N-(4-(2,6-dimethoxyphenyl)-5-(2-furanyl)-4H-1,2,4-triazol-3-yl)-1-(4-pyrimidinyl)-2-propanesulfonamide or (2S)—N-(4-(2,6-dimethoxyphenyl)-5-(2-furanyl)-4H-1,2,4-triazol-3-yl)-1-(4-pyrimidinyl)-2-propanesulfonamide] was tested. Which EC50 did it give?
The EC50 was 44000 pM.

Source: US10736883B2, “Triazole furan compounds as agonists of the APJ receptor” (AMGEN INC., priority 2016, dated 2020)
